Results on 41 molecules are retold here after the Deep4Chem optical property database.

A short description of the data set: photoluminescence quantum yield (fraction); solvent given as SMILES.

Molecules are shown by their SMILES.

`O=C1NC(=O)c2c1c1c3ccccc3[nH]c1c1[nH]c3ccccc3c21`: the photoluminescence quantum yield was determined as 0.44 (in C1CCOC1); 0.33 (in CC#N); 0.25 (in CC(C)OC(C)C); 0.28 (in CCCCOCCCC); 0.26 (in CCO); 0.29 (in CCOC(C)=O). Besides, the photoluminescence quantum yield by setting is: (in CN(C)C=O) 0.25; (in ClCCl) 0.18.

The molecule `Cc1c(COC(=O)Cc2c[nH]c3ccccc23)n2c(OCC(=O)Cc3c[nH]c4ccccc34)c(C)c(=O)n2c1=O` came in with a photoluminescence quantum yield (in CCO) of 0.715.

As for `CC1(C)C(/C=C/c2cc3ccc(O)cc3oc2=O)=[N+](CCCS(=O)(=O)[O-])c2ccc3c(S(=O)(=O)O)cc(S(=O)(=O)O)cc3c21`, the photoluminescence quantum yield (in CCO) came out at 0.014, the photoluminescence quantum yield (in CS(C)=O) stood at 0.025 and the photoluminescence quantum yield (in O) amounted to 0.027.

Consider `CCN(CC)c1ccc(/C=N/C2CCCCC2/N=C/c2ccc(N(CC)CC)cc2O)c(O)c1` (stereo not given), for which the photoluminescence quantum yield (in CC#N) amounted to 0.068.

On to `COc1ccc(C2=[N+]3C(=Nc4c(-c5ccccc5)c5c(n4[B-]3(F)F)-c3ccc(OC)cc3CC5)C(c3ccccc3)=C2)cc1`, for which, for the setting “in ClC(Cl)Cl”, the photoluminescence quantum yield is 0.38.

Where the note is “in CCCCCC”, `CC(C)[Si](C#Cc1c2nc3ccccc3nc2c(C#C[Si](C(C)C)(C(C)C)C(C)C)c2nc3c(ccc4cc5ccccc5cc43)nc12)(C(C)C)C(C)C` returned a photoluminescence quantum yield of 0.25.

Regarding `C(=C\c1ccc(/C=C/c2c3ccccc3cc3ccccc23)cc1)/c1ccncc1`, where the note is “in C1CCOC1”, the photoluminescence quantum yield came out at 0.34.

In the case of `F[B-]1(F)n2c(Oc3ccccc3)c(Cl)c3c2C(=C2C(Br)=C(Cl)C(Oc4ccccc4)=[N+]21)Oc1ccccc1-3`, the photoluminescence quantum yield (in ClCCl) was 0.99.

Molecule `CC1=CC(C)=[N+]2C1=C(c1ccc(-c3ccc(O)cc3)s1)c1c(C)cc(C)n1[B-]2(F)F` yielded a photoluminescence quantum yield (in Cc1ccccc1) of 0.069.

Take `CCCCCCC1(CCCCCC)c2cc(-c3ccc(-c4ccc(-c5ccc(-c6ccc7c(c6)C(CCCCCC)(CCCCCC)c6cc(-n8c9ccc(-n%10c%11ccccc%11c%11ccccc%11%10)cc9c9cc(-n%10c%11ccccc%11c%11ccccc%11%10)ccc98)ccc6-7)s5)c5nsnc45)s3)ccc2-c2ccc(-n3c4ccc(-n5c6ccccc6c6ccccc65)cc4c4cc(-n5c6ccccc6c6ccccc65)ccc43)cc21`: where the note is “in ClCCl”, the photoluminescence quantum yield stood at 0.15.

Consider `CC(C)(C)c1ccc2oc3nc4oc5ccc(-n6c7ccccc7c(=O)c7ccccc76)cc5c4cc3c2c1`, for which the photoluminescence quantum yield (in ClC(Cl)Cl) worked out at 0.391.

The molecule `C=CC(=O)Oc1ccc2cc(C=C)c(=O)oc2c1` showed a photoluminescence quantum yield (in CC#N) of 0.19.

Regarding `CCN(CC)c1ccc2cc(-c3csc(N)c3C#N)c(=O)oc2c1`, the photoluminescence quantum yield reads like this: (in C1CCOC1) 0.62; (in CO) 0.02; (in CS(C)=O) 0.04; (in Cc1ccccc1) 0.74; (in ClCCl) 0.6.

`Cc1ccc(-c2cnc3nn4ccccc4c3n2)cc1` yielded a photoluminescence quantum yield (in C1CCOC1) of 0.26.

With `F[B-]1(F)n2c(Cl)c(Cl)c(Br)c2C(Oc2ccccc2)=C2C(Br)=C(Cl)C(Cl)=[N+]21`, where the note is “in ClCCl”, the photoluminescence quantum yield came out at 0.05.

Molecule `COc1ccc(-c2cc(-c3ccccc3)c3n2[B-](F)(F)[N+]2=C4C=NC=CN4[B-](F)(F)[N+]2=C3)cc1` had a photoluminescence quantum yield (in ClCCl) of 0.46.

In turn, `O=c1c2ccc(-c3ccc(N(c4ccccc4)c4ccccc4)cc3)cc2sc2cc(-c3ccc(N(c4ccccc4)c4ccccc4)cc3)ccc12` gave a photoluminescence quantum yield (in c1ccc2c(c1)c1ccccc1n2-c1ccc(-c2ccc(-n3c4ccccc4c4ccccc43)cc2)cc1) of 0.35.

In the case of `CC(C)[Si](C#Cc1c2ccccc2c(C#C[Si](C(C)C)(C(C)C)C(C)C)c2nc3c(nc12)Cc1ccccc1-3)(C(C)C)C(C)C`, the photoluminescence quantum yield (in CCCCCC) stood at 0.47.

Consider `Cc1ccc(/C=C/c2ccccc2-[n+]2cc([O-])on2)cc1`, for which the photoluminescence quantum yield came out at 0.0007 (in C1CCCCC1) and 0.017 (in CC#N).

The molecule `CC1(C)c2ccccc2N(c2c(F)cc(-c3nnc(-c4ccccc4)o3)cc2F)c2ccccc21` came in with a photoluminescence quantum yield (in Cc1ccccc1) of 0.24 and a photoluminescence quantum yield (in O=P(c1ccccc1)(c1ccccc1)c1ccccc1Oc1ccccc1P(=O)(c1ccccc1)c1ccccc1) of 0.72.

For the setting “in ClCCl”, `F[B-]1(F)n2c(c3ccccc3c2-c2ccccc2)C(c2ccccc2)=C2c3ccccc3C(c3ccccc3)=[N+]21` displayed a photoluminescence quantum yield of 0.93.

For the molecule `CCCSC1=[N+]2C(=C(c3ccccc3)c3ccc(SCCC)n3[B-]2(F)F)C=C1`, the photoluminescence quantum yield reads like this: (in CC#N) 0.44; (in CCCCCC) 0.34; (in CCOC(C)=O) 0.36; (in CO) 0.42; (in ClCCl) 0.43.

Molecule `c1ccc2c(c1)ncc1ccc3cnc4ccccc4c3c12` yielded a photoluminescence quantum yield (in CC#N) of 0.14.

Take `CCC1=C(C)C2=Cc3cc4c(cc3B(O)N2C1=O)OCO4`: the photoluminescence quantum yield came out at 0.57 (in CC#N), 0.3 (in CO), 0.8 (in CS(C)=O) and 0.61 (in ClC(Cl)Cl).

`CC(C)c1cccc(C(C)C)c1N1C(=O)c2ccc3cc4c(cc5ccc6c7c(ccc4c57)C(=O)N(c4c(C(C)C)cccc4C(C)C)C6=O)c4ccc(c2c34)C1=O` yielded a photoluminescence quantum yield (in ClCCl) of 0.53.

Molecule `CN(C)c1ccc(/C=C/c2cccnn2)cc1` returned a photoluminescence quantum yield (in ClCCl) of 0.02.

For the molecule `CC1=[N+]2C(=C(c3c4ccccc4cc4ccccc34)c3ccc(/C=C/C(C)(C)C)n3[B-]2(F)F)C=C1`, where the note is “in ClC(Cl)Cl”, the photoluminescence quantum yield came to 0.32.

Consider `COc1ccc(C2=C3C(C)=CC(C)=[N+]3[B-](F)(F)n3c(/C=C/c4ccc(N(C)C)cc4)cc(C)c32)cc1`, for which the photoluminescence quantum yield runs as follows: (in C1CCCCC1) 0.97; (in C1CCOC1) 0.56; (in C1COCCO1) 0.77; (in CC1CCCCC1) 0.86; (in CC#N) 0.09; (in CC(C)=O) 0.27. Besides, the photoluminescence quantum yield by setting is: (in CC(C)OC(C)C) 0.87; (in CCC#N) 0.19; (in CCCC#N) 0.27; (in CCCCO) 0.59; (in CCCCOCCCC) 0.91; (in CCOC(C)=O) 0.59. Besides, the photoluminescence quantum yield is 0.93 (in CCOCC); 0.08 (in CN(C)C=O); 0.16 (in CO); 0.056 (in CS(C)=O); 0.85 (in Cc1ccccc1); 0.82 (in ClC(Cl)Cl).

Consider `COc1ccc(C#Cc2c3ccccc3c(C#Cc3ccc(OC)cc3)c3cc4sc(C)cc4cc23)cc1`, for which, for the setting “in ClCCl”, the photoluminescence quantum yield turned out to be 0.75.

Consider `CCCCCCCc1cc2c(o1)=CC1=C3c4cc5oc(CCCCCCC)cc5n4[B-](F)(F)[n+]4nnn(c43)[B-](F)(F)[N+]=21`, for which the photoluminescence quantum yield (in C1CCOC1) came out at 0.34 and the photoluminescence quantum yield (in ClCCl) turned out to be 0.39.

As for `COc1ccc2cc3c(C)cc(=O)oc3cc2c1`, the photoluminescence quantum yield is 0.0071 (in CC#N); 0 (in CCCCCC); 0.13 (in CCO); 0.0006 (in CCOC(C)=O); 0.21 (in CO); 0.011 (in ClC(Cl)Cl). Also, where the note is “in OCC(F)(F)F”, the photoluminescence quantum yield is 0.33.

Regarding `Cc1c(C2=[N+]3C(=Cc4c(C)c5ccccc5n4[B-]3(F)F)c3ccccc32)[nH]c2ccccc12`, the photoluminescence quantum yield by setting is: (in C1CCOC1) 0.04; (in CC#N) 0.04; (in CCCCCC) 0.14; (in CO) 0.03; (in Cc1ccccc1) 0.14; (in ClCCl) 0.08.

`CC(=O)c1c(N[C@@H](CC(C)C)C(=O)O)c2ccc(N(C)C)cc2oc1=O` came in with a photoluminescence quantum yield (in ClCCl) of 0.0027.

With `CC(C)[Si](C#Cc1c2nsnc2c(C#C[Si](C(C)C)(C(C)C)C(C)C)c2nc3c(ccc4cc5ccccc5cc43)nc12)(C(C)C)C(C)C`, where the note is “in CCCCCC”, the photoluminescence quantum yield is 0.13.

Consider `O=[N+]([O-])c1ccc(F)cc1C1CC(c2cccc3ccccc23)=NN1c1ccccc1` (stereo not given), for which the photoluminescence quantum yield was 0.24 (in C1CCCCC1); 0.3 (in C1CCOC1); 0.46 (in C1COCCO1); 0.2 (in CC#N); 0.19 (in CC(C)O); 0.15 (in CCOC(C)=O). Moreover, the photoluminescence quantum yield reads like this: (in CCOCC) 0.2; (in CO) 0.14; (in Cc1ccccc1) 0.22; (in ClC(Cl)Cl) 0.12; (in O) 0.12.

Where the note is “in CC#N”, `Cc1ccc2nc3[nH]c(=O)[nH]c(=O)c3nc2c1C` yielded a photoluminescence quantum yield of 0.041.

Where the note is “in Cc1ccccc1”, `CCCCCC(CC)C1(C(CC)CCCCC)c2ccccc2-c2ccc(C#Cc3cc(C#Cc4ccc5c(c4)C(C(CC)CCCCC)(C(CC)CCCCC)c4ccccc4-5)c4ccc5c(C#Cc6ccc7c(c6)C(C(CC)CCCCC)(C(CC)CCCCC)c6ccccc6-7)cc(C#Cc6ccc7c(c6)C(C(CC)CCCCC)(C(CC)CCCCC)c6ccccc6-7)c6ccc3c4c65)cc21` (stereo not given) registered a photoluminescence quantum yield of 0.67.

For the setting “in CO”, `c1ccc(N(c2ccccc2)c2ccc(-c3ncc(-c4ccc(-c5ccc(-c6cnc(-c7ccc(N(c8ccccc8)c8ccccc8)cc7)s6)s5)s4)s3)cc2)cc1` came in with a photoluminescence quantum yield of 0.16.

`CC(C)c1cc(C(C)C)c(B2c3ccccc3Oc3cc(N4c5ccccc5C5(c6ccccc6Oc6ccccc65)c5ccccc54)ccc32)c(C(C)C)c1` registered a photoluminescence quantum yield (in Cc1ccccc1) of 0.56.

As to `c1ccc2nc3c(nc2c1)[nH]c1ccccc13`, the photoluminescence quantum yield by setting is: (in C1COCCO1) 0.04; (in CC#N) 0.05; (in CCCCCCC) 0.02; (in CCO) 0.01.

Molecule `F[B-]1(F)n2c(cc3ccc4ccccc4c32)C(c2ccc(I)cc2)=C2C=C3CCc4ccccc4C3=[N+]21` yielded a photoluminescence quantum yield (in ClC(Cl)Cl) of 0.17.
